The values below are quoted from earlier work in patent US11220530B2, “Nanospheres of SEC14-like proteins and cognate ligands” (UNIVERSITÄT BERN, priority 2016, dated 2022).

SMILES strings stand for the structures.

The target of the series is Cellular retinaldehyde-binding protein (CRALBP) (Bos taurus, UniProt P10123). As to conditions: for Kd: cited from Saari and Bredberg, J Biol Chem 1987, read-out: Kd (affinity for CRALBP).
Sequence of Cellular retinaldehyde-binding protein (CRALBP) (P10123 whole entry): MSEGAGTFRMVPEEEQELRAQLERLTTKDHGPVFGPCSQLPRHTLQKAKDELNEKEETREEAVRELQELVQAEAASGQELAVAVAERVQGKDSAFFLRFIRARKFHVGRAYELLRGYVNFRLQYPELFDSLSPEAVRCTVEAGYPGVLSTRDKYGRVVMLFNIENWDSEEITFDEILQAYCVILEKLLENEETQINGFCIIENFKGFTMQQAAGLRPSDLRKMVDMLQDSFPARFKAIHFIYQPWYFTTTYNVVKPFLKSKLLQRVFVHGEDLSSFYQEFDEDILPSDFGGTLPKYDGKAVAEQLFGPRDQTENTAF

As to `CC1=C(/C=C/C(C)=C\C=C\C(C)=C\C=O)C(C)(C)CCC1` [9-cis-retinal], the Kd (commonly a measure of binding affinity in units of concentration) is 53 nM.
In the case of `CC1=C(/C=C/C(C)=C/C=C\C(C)=C\CO)C(C)(C)CCC1` [11-cis-retinol], the Kd was 60 nM.
Take `CC1=C(/C=C/C(C)=C/C=C/C(C)=C/C=O)C(C)(C)CCC1` [11-cis-retinal]: the Kd was 20 nM.
Consider `CC1=C(/C=C/C(C)=C/C=C/C(C)=C/C=O)C(C)(C)CCC1` [13-cis], for which the “binding to CRALBP” value (same cited study) is “does not bind”.
